# Test results as given in the supplement of paper PMC10307832.
# Columns and labels:
# Assay in all cases: relative viability (nuclei count vs DMSO), 5 days (fraction); higher = more cells survive
# Daporinad + Trametinib = compound: O=C(/C=C/c1cccnc1)NCCCCC1CCN(C(=O)c2ccccc2)CC1 [Daporinad] + CC(=O)Nc1cccc(-n2c(=O)n(C3CC3)c(=O)c3c(Nc4ccc(I)cc4F)n(C)c(=O)c(C)c32)c1 [Trametinib] (partner 0.02 µM)
# Outline: (§1)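 One day after seeding in 1536-well plates, lung cancer cell lines were dosed by pin tool. Dosing was either single-drug or a fixed anchor-drug dose plus five library-drug doses (not always all listed) in √10 steps. After 5 days, nuclei were stained in one fix-and-stain step and counted on 4× images, and relative viability is the nuclei count of treated wells over that of vehicle wells, given as the median of duplicate plates.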
# Daporinad + Vorinostat = compound: O=C(/C=C/c1cccnc1)NCCCCC1CCN(C(=O)c2ccccc2)CC1 [Daporinad] + O=C(CCCCCCC(=O)Nc1ccccc1)NO [Vorinostat] (partner 1 µM)
# Outline: as §1
# Daporinad + Pictilisib = compound: O=C(/C=C/c1cccnc1)NCCCCC1CCN(C(=O)c2ccccc2)CC1 [Daporinad] + CS(=O)(=O)N1CCN(Cc2cc3nc(-c4cccc5[nH]ncc45)nc(N4CCOCC4)c3s2)CC1 [Pictilisib] (partner 1 µM)
# Outline: as §1
# R406 + Phenformin = compound: COc1cc(Nc2ncc(F)c(Nc3ccc4c(n3)NC(=O)C(C)(C)O4)n2)cc(OC)c1OC [R406] + N=C(N)NC(=N)NCCc1ccccc1 [Phenformin] (partner 250 µM)
# Outline: as §1
Cell Line,relative viability (Daporinad + Trametinib; first compound 0.0005 µM),relative viability (Daporinad + Trametinib; first compound 0.001581 µM),relative viability (Daporinad + Trametinib; first compound 0.005 µM),relative viability (Daporinad + Trametinib; first compound 0.01581 µM),relative viability (Daporinad + Vorinostat; first compound 0.0005 µM),relative viability (Daporinad + Vorinostat; first compound 0.001581 µM),relative viability (Daporinad + Vorinostat; first compound 0.005 µM),relative viability (Daporinad + Vorinostat; first compound 0.01581 µM),relative viability (Daporinad + Pictilisib; first compound 0.0005 µM),relative viability (Daporinad + Pictilisib; first compound 0.001581 µM),relative viability (Daporinad + Pictilisib; first compound 0.005 µM),relative viability (Daporinad + Pictilisib; first compound 0.01581 µM),relative viability (R406 + Phenformin; first compound 0.08 µM),relative viability (R406 + Phenformin; first compound 0.253 µM),relative viability (R406 + Phenformin; first compound 0.8 µM),relative viability (R406 + Phenformin; first compound 2.53 µM),relative viability (R406 + Phenformin; first compound 8 µM)
SK-MES-1,0.561,0.524,0.613,0.743,1,1.2,1.26,1.01,0.296,0.4,0.345,0.306,0.645,0.685,0.706,0.583,0.349
NCI-H2347,0.301,0.288,0.281,0.329,0.586,0.754,0.601,0.616,0.636,0.788,0.711,0.685,0.493,0.417,0.43,0.26,0.235
NCI-H2228,0.439,0.18,0.576,0.531,0.568,0.606,0.692,0.544,0.342,0.358,0.495,0.464,0.318,0.383,0.312,0.106,0.0936
EKVX,0.288,0.329,0.43,0.372,0.621,0.825,0.841,0.851,0.478,0.432,0.412,0.464,0.23,0.254,0.245,0.208,0.178
HOP-62,0.453,0.427,0.484,0.422,0.341,0.724,0.618,0.414,,0.846,0.702,0.668,0.661,0.783,0.631,0.71,0.658
NCI-H2126,0.562,0.548,0.604,0.587,0.862,0.836,0.948,0.91,0.529,0.516,0.485,0.486,0.527,0.554,0.516,0.529,0.359
NCI-H1944,0.449,0.464,0.469,0.399,0.57,0.524,0.647,0.613,0.366,0.346,0.389,0.34,0.207,0.227,0.218,0.15,0.16
EPLC-272H,0.295,0.317,0.284,0.31,0.408,0.531,0.401,0.294,0.295,0.382,0.387,0.436,0.278,0.371,0.333,0.25,0.207
RERF-LC-KJ,0.788,1.01,0.955,0.921,0.659,0.795,0.814,0.701,0.58,0.529,0.525,0.695,0.43,0.415,0.41,0.362,0.286
NCI-H661,0.665,0.746,0.52,0.376,0.766,0.709,0.461,0.568,0.412,0.376,0.487,0.357,0.288,0.263,0.267,0.273,0.226
PC-14,0.657,0.654,0.722,0.572,0.519,0.863,0.898,0.472,0.656,0.726,0.876,0.735,0.602,0.951,0.746,0.332,0.12
COR-L 105,0.445,0.41,0.496,0.469,0.775,0.705,0.861,0.851,0.348,0.364,0.36,0.537,0.495,0.569,0.602,0.366,0.224
NCI-H2405,0.69,0.664,0.647,0.509,0.851,1.06,0.874,0.31,0.505,0.485,0.5,0.377,0.399,0.427,0.402,0.284,0.195
NCI-H1395,1.04,1.04,1.14,1.06,0.627,0.795,0.94,0.794,0.615,0.697,0.574,0.674,0.432,0.463,0.482,0.394,0.345
NCI-H727,0.398,0.453,0.375,0.379,1.11,1.25,1.45,1.03,0.359,0.354,0.414,0.284,0.529,0.644,0.622,,0.423
NCI-H1915,0.28,0.309,0.284,0.368,0.52,0.605,0.634,0.462,0.967,1.15,1.13,0.929,0.359,0.388,0.404,,0.278

Cell Line,relative viability (Daporinad + Trametinib; first compound 0.0005 µM),relative viability (Daporinad + Trametinib; first compound 0.001581 µM),relative viability (Daporinad + Trametinib; first compound 0.005 µM),relative viability (Daporinad + Trametinib; first compound 0.01581 µM),relative viability (Daporinad + Vorinostat; first compound 0.0005 µM),relative viability (Daporinad + Vorinostat; first compound 0.001581 µM),relative viability (Daporinad + Vorinostat; first compound 0.005 µM),relative viability (Daporinad + Vorinostat; first compound 0.01581 µM),relative viability (Daporinad + Pictilisib; first compound 0.0005 µM),relative viability (Daporinad + Pictilisib; first compound 0.001581 µM),relative viability (Daporinad + Pictilisib; first compound 0.005 µM),relative viability (Daporinad + Pictilisib; first compound 0.01581 µM),relative viability (R406 + Phenformin; first compound 0.08 µM),relative viability (R406 + Phenformin; first compound 0.253 µM),relative viability (R406 + Phenformin; first compound 0.8 µM),relative viability (R406 + Phenformin; first compound 2.53 µM),relative viability (R406 + Phenformin; first compound 8 µM)
CAL-12T,0.275,0.378,0.37,0.229,0.659,0.799,0.402,0.217,0.305,,0.442,0.494,0.57,0.667,0.668,0.353,0.14
NCI-H441,0.351,0.426,0.496,0.573,0.913,0.677,0.811,0.778,0.435,0.631,0.588,0.507,0.829,0.872,1.05,0.44,0.309
LXF-289,0.569,0.663,0.689,0.681,0.692,0.937,0.794,0.96,0.714,0.862,0.879,0.859,0.517,0.543,0.533,0.38,0.4
NCI-H520,0.639,0.721,0.185,0.136,0.747,0.284,0.228,0.165,0.346,0.29,0.29,0.187,0.625,0.785,0.641,0.28,0.188
NCI-H2009,0.261,0.35,0.315,0.31,0.745,0.79,0.708,0.347,0.784,1,0.938,0.661,0.47,0.501,0.487,0.333,0.185
201T,0.713,0.731,0.705,0.735,0.965,1.08,1.05,1.04,0.657,0.675,0.682,0.635,0.416,0.483,0.431,0.367,0.351
NCI-H23,0.395,0.382,0.412,0.342,0.624,0.251,0.586,0.2,0.59,0.502,0.446,0.347,0.693,0.821,0.775,,0.355
LOU-NH91,0.797,0.847,0.922,0.941,0.929,1.01,1.1,1.02,0.528,0.568,0.587,0.577,0.711,0.72,0.713,0.416,0.391
NCI-H2085,0.515,,0.653,0.538,0.737,,0.92,0.966,0.438,0.463,0.526,0.554,0.763,0.811,0.769,0.316,0.495
COR-L23,0.577,0.662,0.737,0.302,0.427,0.345,0.408,0.161,0.777,0.952,0.721,0.368,0.416,0.456,0.501,0.379,0.261
BEN,1.01,0.996,1.06,1.18,0.554,0.661,0.679,0.63,0.624,0.62,0.597,0.776,0.267,0.283,0.256,0.26,0.249
ChaGo-K-1,0.86,0.914,0.767,0.428,0.832,0.743,0.677,0.283,0.774,0.64,0.702,0.578,0.491,0.508,0.657,0.42,0.403
LK-2,0.783,0.795,0.764,0.283,0.28,0.331,0.307,0.256,0.605,0.689,0.46,0.354,0.385,0.807,0.428,0.181,0.105
NCI-H322M,0.507,0.484,0.504,0.441,0.891,0.877,0.831,0.669,0.482,0.55,0.575,0.52,0.709,0.721,0.853,0.582,0.275
NCI-H596,0.704,0.791,0.74,0.48,0.582,0.321,0.737,0.4,0.402,0.371,0.421,0.448,0.672,0.845,0.967,0.703,0.281
